# Values of other authors in patent publication US8911777B2, “Pharmaceutical composition of tacrolimus” (Sigmoid Pharma Limited, priority 2007, dated 2014).
# How the values were obtained:
# [1] = whole blood; Masuda et al. 2006
# [2] = after oral administration of conventional IR tablets
compound,measurement,setting,value
C=CC[C@@H]1/C=C(\C)C[C@H](C)C[C@H](OC)[C@H]2O[C@@](O)(C(=O)C(=O)N3CCCC[C@H]3C(=O)O[C@H](/C(C)=C/[C@@H]3CC[C@@H](O)[C@H](OC)C3)[C@H](C)[C@@H](O)CC1=O)[C@H](C)C[C@@H]2OC [Tacrolimus],blood concentration at which adverse effects occurred,[1],higher than 15 ng/ml
same,persistence of drug effects,[2],8 to 12 h
